Values quoted from earlier work, collected in patent US20210022978A1, “BUMETANIDE DERIVATIVES FOR THE THERAPY OF HYPERHIDROSIS” (ZILENTIN AG, priority 2018, published 2021).

How the values were obtained:
conditioned anxiety = conditions: rats, compared with the vehicle alone
NKCC in sweat glands = molecular target: T1, NKCC in sweat glands (Homo sapiens, UniProt P55011)
T1 construct: host or cells: sweat glands (in vivo)
T1 sequence (P55011 1-1212): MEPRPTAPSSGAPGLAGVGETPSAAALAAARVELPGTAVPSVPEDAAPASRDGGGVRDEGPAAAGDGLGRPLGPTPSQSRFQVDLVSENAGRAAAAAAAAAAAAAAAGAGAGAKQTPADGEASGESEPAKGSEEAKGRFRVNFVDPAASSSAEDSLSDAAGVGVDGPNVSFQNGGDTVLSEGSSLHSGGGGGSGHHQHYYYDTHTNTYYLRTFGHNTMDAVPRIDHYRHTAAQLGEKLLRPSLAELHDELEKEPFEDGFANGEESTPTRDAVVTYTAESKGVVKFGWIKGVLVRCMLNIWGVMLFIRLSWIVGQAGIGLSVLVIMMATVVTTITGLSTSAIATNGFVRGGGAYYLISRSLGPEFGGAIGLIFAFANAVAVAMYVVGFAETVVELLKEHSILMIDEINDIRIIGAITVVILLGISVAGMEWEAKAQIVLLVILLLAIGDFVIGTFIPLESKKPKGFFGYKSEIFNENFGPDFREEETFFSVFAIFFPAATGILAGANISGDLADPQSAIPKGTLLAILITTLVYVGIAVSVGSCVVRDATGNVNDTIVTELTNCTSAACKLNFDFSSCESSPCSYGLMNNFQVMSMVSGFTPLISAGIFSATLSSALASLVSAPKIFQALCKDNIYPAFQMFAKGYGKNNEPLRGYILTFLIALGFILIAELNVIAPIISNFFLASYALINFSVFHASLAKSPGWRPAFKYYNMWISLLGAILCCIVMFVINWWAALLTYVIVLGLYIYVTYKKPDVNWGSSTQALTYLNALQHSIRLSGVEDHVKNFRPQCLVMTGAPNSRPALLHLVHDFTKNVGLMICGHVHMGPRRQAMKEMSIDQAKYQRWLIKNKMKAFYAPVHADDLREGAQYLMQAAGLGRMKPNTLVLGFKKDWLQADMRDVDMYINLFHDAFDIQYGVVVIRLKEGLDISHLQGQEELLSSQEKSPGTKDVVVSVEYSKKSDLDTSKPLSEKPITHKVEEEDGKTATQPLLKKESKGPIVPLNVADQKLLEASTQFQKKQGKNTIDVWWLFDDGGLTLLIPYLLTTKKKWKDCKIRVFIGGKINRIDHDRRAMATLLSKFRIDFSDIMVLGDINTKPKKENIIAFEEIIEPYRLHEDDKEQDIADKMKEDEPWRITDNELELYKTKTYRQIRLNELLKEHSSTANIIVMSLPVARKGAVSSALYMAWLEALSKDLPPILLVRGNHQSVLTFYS

| effectiveness in treating hyperhidrosis (NKCC in sweat glands) | Structure (SMILES) | percentage of test period freezing (conditioned anxiety) | inhibition of rAceMIF tautomerase activity (rAceMIF) |
| --- | --- | --- | --- |
| partly effective | CCCCNc1cc(C(=O)O)cc(S(N)(=O)=O)c1Oc1ccccc1 [bumetanide, 3-(butylamino)-4-phenoxy-5-sulfamoylbenzoic acid] | significantly smaller percentage of test period freezing | – |
| – | NS(=O)(=O)c1cc(C(=O)O)c(NCc2ccco2)cc1Cl [furosemide] | – | submicromolar |
